The source of these data is US11970498B2, “CDK2 inhibitors” (BLUEPRINT MEDICINES CORPORATION, priority 2021, dated 2024).

The target in one assay is T1, CDK1/Cyclin B1, GST-tag (Homo sapiens, UniProt P06493).
T1 construct: GST
As to the kind of experiment: CDK1/Cyclin B1 biochemical phosphorylation assay (Caliper mobility shift). As to conditions: apparent IC50; 1.0 mM ATP or ATP Km; 1.5 nM enzyme; 25° C. Summed up:
(§1)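 7.5 µM 5-FAM-QSPKKG-CONH2 peptide phosphorylated by CDK2/Cyclin E (1.25 nM) or GST-CDK1/Cyclin B1 (1.5 nM) at 1.0 mM ATP or ATP Km, in HEPES pH 7.5, MgCl2, Brij-35, DTT, 1% DMSO, 25 °C to 10–20% conversion. EDTA stop; Caliper mobility-shift readout; apparent IC50 from percent activity vs log concentration.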

A further assay addresses CDK2/Cyclin E (Homo sapiens, UniProt P24941). As to the kind of experiment: CDK2/Cyclin E biochemical phosphorylation assay (Caliper mobility shift). The conditions noted are these: apparent IC50; 1.0 mM ATP or ATP Km; 1.25 nM enzyme; 25° C.; read-out: CDK2/cyclin E1 IC50. Put shortly:
as §1

T1 sequence (P06493 whole entry): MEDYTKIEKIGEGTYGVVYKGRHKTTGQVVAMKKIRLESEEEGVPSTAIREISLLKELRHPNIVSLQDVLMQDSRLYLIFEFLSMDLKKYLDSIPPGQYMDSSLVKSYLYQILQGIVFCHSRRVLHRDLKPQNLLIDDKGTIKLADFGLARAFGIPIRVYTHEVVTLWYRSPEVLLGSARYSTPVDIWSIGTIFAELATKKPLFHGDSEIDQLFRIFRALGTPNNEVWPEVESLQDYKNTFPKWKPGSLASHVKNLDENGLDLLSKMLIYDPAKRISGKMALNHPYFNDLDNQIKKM
T1 sequence (P14635 whole entry partner): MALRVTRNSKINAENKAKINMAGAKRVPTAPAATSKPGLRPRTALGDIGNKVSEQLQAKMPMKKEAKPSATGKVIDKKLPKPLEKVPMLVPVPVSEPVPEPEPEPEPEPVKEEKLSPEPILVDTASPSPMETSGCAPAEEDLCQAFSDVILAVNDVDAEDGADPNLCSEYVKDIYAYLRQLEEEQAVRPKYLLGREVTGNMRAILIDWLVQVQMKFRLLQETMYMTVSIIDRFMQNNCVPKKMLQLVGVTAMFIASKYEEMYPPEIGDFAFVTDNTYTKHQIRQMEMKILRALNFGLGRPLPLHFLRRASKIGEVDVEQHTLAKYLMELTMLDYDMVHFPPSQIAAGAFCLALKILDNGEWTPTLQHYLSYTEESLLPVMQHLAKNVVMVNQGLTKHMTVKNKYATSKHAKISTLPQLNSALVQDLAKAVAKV

`FC(F)Oc1cc(Nc2cnc3cnn(CC45COCC4C5)c3n2)n[nH]1` (stereo not drawn) [Example 221, 1-(3-oxabicyclo[3.1.0]hexan-1-ylmethyl)-N-(5-(difluoromethoxy)-1H-pyrazol-3-yl)-1H-pyrazolo[3,4-b]pyrazin-6-amine]: the IC50 at CDK1/Cyclin B1, GST-tag is at least 500 nM; at CDK2/Cyclin E, 30 to 100 nM.

Turning to `O[C@H]1CC[C@@H](n2ncc3ncc(Nc4cc(OC(F)F)[nH]n4)nc32)C1` (single isomer, unassigned) [Example 209], the IC50 at CDK1/Cyclin B1, GST-tag was at least 500 nM; at CDK2/Cyclin E it was above 100 nM.

For the molecule `FC(F)Oc1cc(Nc2cnc3cnn(CC45CC(F)(C4)C5)c3n2)n[nH]1` [Example 116, N-(5-(difluoromethoxy)-1H-pyrazol-3-yl)-1-((3-fluorobicyclo[1.1.1]pentan-1-yl)methyl)-1H-pyrazolo[3,4-b]pyrazin-6-amine], the IC50 at CDK1/Cyclin B1, GST-tag was at least 500 nM; on CDK2/Cyclin E, at most 10 nM.

Turning to `C[C@@H](C1CC1)n1ncc2ncc(Nc3cc(OC(F)F)[nH]n3)nc21` [Example 51, (S)-1-(1-cyclopropylethyl)-N-(5-(difluoromethoxy)-1H-pyrazol-3-yl)-1H-pyrazolo[3,4-b]pyrazin-6-amine], the IC50 at CDK1/Cyclin B1, GST-tag was 100 to 500 nM; on CDK2/Cyclin E, at most 10 nM.

Turning to `C[C@@H](c1cc(F)ccn1)n1ncc2ncc(Nc3cc(OC(F)F)[nH]n3)nc21` (single isomer, unassigned) [Example 13, (S)—N-(5-(difluoromethoxy)-1H-pyrazol-3-yl)-1-(1-(4-fluoropyridin-2-yl)ethyl)-1H-pyrazolo[3,4-b]pyrazin-6-amine or (R)—N-(5-(difluoromethoxy)-1H-pyrazol-3-yl)-1-(1-(4-fluoropyridin-2-yl)ethyl)-1H-pyrazolo[3,4-b]pyrazin-6-amine], the IC50 on CDK1/Cyclin B1, GST-tag is below 100 nM; on CDK2/Cyclin E, at most 10 nM.

In the case of `C[C@@H](c1cccnc1)n1ncc2ncc(Nc3cc(OC(F)F)[nH]n3)nc21` [Example 1, (S)—N-(5-(difluoromethoxy)-1H-pyrazol-3-yl)-1-(1-(pyridin-3-yl)ethyl)-1H-pyrazolo[3,4-b]pyrazin-6-amine], the IC50 at CDK1/Cyclin B1, GST-tag was 100 to 500 nM; at CDK2/Cyclin E it was at most 10 nM.

As for `CC(C)(C1CC1)n1ncc2ncc(Nc3cc(OC(F)F)[nH]n3)nc21` [Example 23, 1-(2-cyclopropylpropan-2-yl)-N-(5-(difluoromethoxy)-1H-pyrazol-3-yl)-1H-pyrazolo[3,4-b]pyrazin-6-amine], the IC50 is 100 to 500 nM at CDK1/Cyclin B1, GST-tag and at most 10 nM on CDK2/Cyclin E.

With `COc1cc(Nc2cnc3cnn([C@@H](C)C4COC4)c3n2)n[nH]1` [Example 71, (S)-N-(5-methoxy-1H-pyrazol-3-yl)-1-(1-(oxetan-3-yl)ethyl)-1H-pyrazolo[3,4-b]pyrazin-6-amine], the IC50 at CDK1/Cyclin B1, GST-tag is at least 500 nM; on CDK2/Cyclin E, 10 to 20 nM.

On to `FC(F)Oc1cc(Nc2cnc3cnn(C[C@H]4CCCOC4)c3n2)n[nH]1` (single isomer, unassigned) [Example 141, (R)-N-(5-(difluoromethoxy)-1H-pyrazol-3-yl)-1-((tetrahydro-2H-pyran-3-yl)methyl)-1H-pyrazolo[3,4-b]pyrazin-6-amine or (S)-N-(5-(difluoromethoxy)-1H-pyrazol-3-yl)-1-((tetrahydro-2H-pyran-3-yl)methyl)-1H-pyrazolo[3,4-b]pyrazin-6-amine], for which the IC50 is at least 500 nM on CDK1/Cyclin B1, GST-tag and at most 10 nM at CDK2/Cyclin E.

Turning to `COc1cc(Nc2cnc3cnn(Cc4cccnc4F)c3n2)n[nH]1` [Example 137, 1-((2-fluoropyridin-3-yl)methyl)-N-(5-methoxy-1H-pyrazol-3-yl)-1H-pyrazolo[3,4-b]pyrazin-6-amine], the IC50 at CDK1/Cyclin B1, GST-tag was 100 to 500 nM; on CDK2/Cyclin E it was at most 10 nM.

Take `FC(F)Oc1cc(Nc2cnc3cnn(CCc4ccncc4)c3n2)n[nH]1` [Example 130, N-(5-(difluoromethoxy)-1H-pyrazol-3-yl)-1-(2-(pyridin-4-yl)ethyl)-1H-pyrazolo[3,4-b]pyrazin-6-amine]: the IC50 was 100 to 500 nM at CDK1/Cyclin B1, GST-tag and at most 10 nM on CDK2/Cyclin E.

`C[C@@H](C1CCOCC1)n1nc(C#N)c2ncc(Nc3cc(OC(F)F)[nH]n3)nc21` [Example 64, (S)-6-((5-(difluoromethoxy)-1H-pyrazol-3-yl)amino)-1-(1-(tetrahydro-2H-pyran-4-yl)ethyl)-1H-pyrazolo[3,4-b]pyrazine-3-carbonitrile]: the IC50 at CDK1/Cyclin B1, GST-tag was at least 500 nM; on CDK2/Cyclin E, 20 to 30 nM.

In the case of `C[C@@H](O)c1nn([C@@H](C)c2cccnc2)c2nc(Nc3cc(OC(F)F)[nH]n3)cnc12` (single isomer, unassigned) [Example 177, (R)-1-(6-((5-(difluoromethoxy)-1H-pyrazol-3-yl)amino)-1-((S)-1-(pyridin-3-yl)ethyl)-1H-pyrazolo[3,4-b]pyrazin-3-yl)ethan-1-ol or (S)-1-(6-((5-(difluoromethoxy)-1H-pyrazol-3-yl)amino)-1-((S)-1-(pyridin-3-yl)ethyl)-1H-pyrazolo[3,4-b]pyrazin-3-yl)ethan-1-ol], the IC50 on CDK1/Cyclin B1, GST-tag is at least 500 nM; at CDK2/Cyclin E, at most 10 nM.

Take `COc1cc(Nc2cnc3cnn(C(C)c4cccnn4)c3n2)n[nH]1` (single isomer, unassigned) [Example 32, (S)—N-(5-methoxy-1H-pyrazol-3-yl)-1-(1-(pyridazin-3-yl)ethyl)-1H-pyrazolo[3,4-b]pyrazin-6-amine or (R)—N-(5-methoxy-1H-pyrazol-3-yl)-1-(1-(pyridazin-3-yl)ethyl)-1H-pyrazolo[3,4-b]pyrazin-6-amine]: the IC50 was at least 500 nM at CDK1/Cyclin B1, GST-tag and 20 to 30 nM at CDK2/Cyclin E.

`FC(F)Oc1cc(Nc2cnc3cnn(Cc4cscn4)c3n2)n[nH]1` [Example 52, N-(5-(difluoromethoxy)-1H-pyrazol-3-yl)-1-(thiazol-4-ylmethyl)-1H-pyrazolo[3,4-b]pyrazin-6-amine]: the IC50 at CDK1/Cyclin B1, GST-tag was at least 500 nM; on CDK2/Cyclin E, 30 to 100 nM.

As to `FC(F)Oc1cc(Nc2cnc3cnn(Cc4ccno4)c3n2)n[nH]1` [Example 134, N-(5-(difluoromethoxy)-1H-pyrazol-3-yl)-1-(isoxazol-5-ylmethyl)-1H-pyrazolo[3,4-b]pyrazin-6-amine], the IC50 was at least 500 nM at CDK1/Cyclin B1, GST-tag and 10 to 20 nM at CDK2/Cyclin E.

In the case of `N#C[C@H]1C[C@H](Cn2ncc3ncc(Nc4cc(OC(F)F)[nH]n4)nc32)C1` (single isomer, unassigned) [Example 190, (1r,3r)-3-((6-((5-(difluoromethoxy)-1H-pyrazol-3-yl)amino)-1H-pyrazolo[3,4-b]pyrazin-1-yl)methyl)cyclobutane-1-carbonitrile or (1s,3s)-3-((6-((5-(difluoromethoxy)-1H-pyrazol-3-yl)amino)-1H-pyrazolo[3,4-b]pyrazin-1-yl)methyl)cyclobutane-1-carbonitrile], the IC50 was at least 500 nM on CDK1/Cyclin B1, GST-tag and above 100 nM on CDK2/Cyclin E.

In the case of `FC[C@H](c1ccccc1)n1ncc2ncc(Nc3cc(OC(F)F)[nH]n3)nc21` (single isomer, unassigned) [Example 90, (S)-N-(5-(difluoromethoxy)-1H-pyrazol-3-yl)-1-(2-fluoro-1-phenylethyl)-1H-pyrazolo[3,4-b]pyrazin-6-amine or (R)-N-(5-(difluoromethoxy)-1H-pyrazol-3-yl)-1-(2-fluoro-1-phenylethyl)-1H-pyrazolo[3,4-b]pyrazin-6-amine], the IC50 is at least 500 nM at CDK1/Cyclin B1, GST-tag and 30 to 100 nM at CDK2/Cyclin E.

Take `O=C1C[C@@H](Cn2ncc3ncc(Nc4cc(OC(F)F)[nH]n4)nc32)CN1` (single isomer, unassigned) [Example 21, (R)-4-((6-((5-(difluoromethoxy)-1H-pyrazol-3-yl)amino)-1H-pyrazolo[3,4-b]pyrazin-1-yl)methyl)pyrrolidin-2-one or (S)-4-((6-((5-(difluoromethoxy)-1H-pyrazol-3-yl)amino)-1H-pyrazolo[3,4-b]pyrazin-1-yl)methyl)pyrrolidin-2-one]: the IC50 at CDK1/Cyclin B1, GST-tag was at least 500 nM; at CDK2/Cyclin E, 20 to 30 nM.

For the molecule `CC1(Cn2ncc3ncc(Nc4cc(OC(F)F)[nH]n4)nc32)CC1` [Example 98, N-(5-(difluoromethoxy)-1H-pyrazol-3-yl)-1-((1-methylcyclopropyl)methyl)-1H-pyrazolo[3,4-b]pyrazin-6-amine], the IC50 is at least 500 nM on CDK1/Cyclin B1, GST-tag and 10 to 20 nM at CDK2/Cyclin E.

As for `C[C@@H](c1ncccc1F)n1ncc2ncc(Nc3cc(OC(F)F)[nH]n3)nc21` [Example 50, (S)-N-(5-(difluoromethoxy)-1H-pyrazol-3-yl)-1-(1-(3-fluoropyridin-2-yl)ethyl)-1H-pyrazolo[3,4-b]pyrazin-6-amine], the IC50 on CDK1/Cyclin B1, GST-tag is at least 500 nM; on CDK2/Cyclin E, at most 10 nM.

Consider `FC(F)Oc1cc(Nc2cnc3cnn(C[C@H]4C[C@@H]4F)c3n2)n[nH]1` (single isomer, unassigned) [Example 159, N-(5-(difluoromethoxy)-1H-pyrazol-3-yl)-1-(((1R,2S)-2-fluorocyclopropyl)methyl)-1H-pyrazolo[3,4-b]pyrazin-6-amine or N-(5-(difluoromethoxy)-1H-pyrazol-3-yl)-1-(((1S,2R)-2-fluorocyclopropyl)methyl)-1H-pyrazolo[3,4-b]pyrazin-6-amine], for which the IC50 at CDK1/Cyclin B1, GST-tag was at least 500 nM; at CDK2/Cyclin E, at most 10 nM.

With `COc1cc(Nc2cnc3cnn(CC4CC4)c3n2)n[nH]1` [Example 69, 1-(cyclopropylmethyl)-N-(5-methoxy-1H-pyrazol-3-yl)-1H-pyrazolo[3,4-b]pyrazin-6-amine], the IC50 on CDK1/Cyclin B1, GST-tag was at least 500 nM; on CDK2/Cyclin E, 30 to 100 nM.

On to `N#Cc1nn(CC2CCOCC2)c2nc(Nc3cc(OC(F)F)[nH]n3)cnc12` [Example 62, 6-((5-(difluoromethoxy)-1H-pyrazol-3-yl)amino)-1-((tetrahydro-2H-pyran-4-yl)methyl)-1H-pyrazolo[3,4-b]pyrazine-3-carbonitrile], for which the IC50 is at least 500 nM on CDK1/Cyclin B1, GST-tag and at most 10 nM at CDK2/Cyclin E.
